Source: patent US20060069132A1, “Azolecarboxamide herbicides” (priority 2004, published 2006)

What was measured:
Assay in all cases: Test E pre-/postemergence herbicide test
[1] = test system: southern sandbur; assay type: in vivo, Cenchrus echinatus
Description: (§1) Seeds of plant species selected from bipinnate beggarticks (Bidens bipinnata L.), hairy beggarticks (Bidens radiata Thuill.), bermudagrass (Cynodon dactylon (L.) Pers.), Surinam grass (Urochloa decumbens (Staph) R. D. Webster, previously named Brachiaria decumbens Stapf), large crabgrass (Digitaria sanguinalis (L.) Scop.), green foxtail (Setaria viridis (L.) P. Beauv.), goosegrass (Eleusine indica (L.) Gaertn.), johnsongrass (Sorghum halepense (L.) Pers.), kochia (Kochia scoparia (L.) Schrad.), pitted morningglory (Ipomoea lacunosa L.), purple nutsedge (Cyperus rotundus L.), common ragweed (Ambrosia elatior L.), mustard (Brassica nigra (L.) W. D. J. Koch), guineagrass (Panicum maximum Jacq.), dallisgrass (Paspalum dilatatum Poir.), barnyardgrass (Echinochloa crus-galli (L). P. Beauv.), southern sandbur (Cenchrus echinatus L.), common sowthistle (Sonchus oleraceous L.), prickly sida (Sida spinosa L.), Italian ryegrass (Lolium multiflorum Lam.), common purslane (Portulaca oleracea L.), broadleaf signalgrass (Brachiaria platyphylla (Griseb.) Nash), common groundsel (Senecio vulgaris L.), common chickweed (Stellaria media (L.) Vill/Cyr.), tropical spiderwort (Commelina benghalensis L.), annual bluegrass (Poa annua L.), downy bromegrass (Bromus tectorum L.), itchgrass (Rottboellia cochinchinensis (L.) L.f.), quackgrass (Elytrigia repens (L.) Nevski), Canada horseweed (Erigeron Canadensis L.), field bindweed (Convolvulus arvensis L.), spotted spurge (Euphorbia maculata L.), common mallow (Malva sylvestris (=s silvestris) L.), and Russian thistle (Salsola kali L. ssp. Ruthenica (Iljin) Soo) were planted and treated preemergence with test chemicals formulated in a non-phytotoxic solvent mixture which included a surfactant.
(§2) At the same time, plants selected from these weed species were treated with postemergence applications of some of the test chemicals formulated in the same manner. Plants ranged in height from 2 to 18 cm (1- to 4-leaf stage) for postemergence treatments. Treated plants and controls were maintained in a greenhouse for 12 to 14 days, after which time all species were compared to controls and visually evaluated. Plant response ratings, summarized in Table E, are based on a scale of 0 to 100 where 0 is no effect and 100 is complete control. A dash (-) response means no test result.

[2] = test system: mustard; assay type: in vivo, Brassica nigra
Description: as §1, §2

[3] = test system: common ragweed; assay type: in vivo, Ambrosia elatior
Description: as §1, §2

[4] = test system: Italian ryegrass; assay type: in vivo, Lolium multiflorum
Description: as §1, §2

[5] = test system: green foxtail; assay type: in vivo, Setaria viridis
Description: as §1, §2

[6] = test system: dallisgrass; assay type: in vivo, Paspalum dilatatum
Description: as §1, §2

[7] = test system: tropical spiderwort; assay type: in vivo, Commelina benghalensis
Description: as §1, §2

[8] = test system: goosegrass; assay type: in vivo, Eleusine indica
Description: as §1, §2

[9] = test system: common mallow; assay type: in vivo, Malva sylvestris
Description: as §1, §2

[10] = Postemergence, 500 g ai/ha, scale 0 to 100
[11] = Postemergence, 250 g ai/ha, scale 0 to 100
[12] = Preemergence, 62 g ai/ha, scale 0 to 100
[13] = Preemergence, 125 g ai/ha, scale 0 to 100
[14] = Preemergence, 250 g ai/ha, scale 0 (no effect) to 100 (complete control)
[15] = Preemergence, 500 g ai/ha, scale 0 (no effect) to 100 (complete control)
[16] = postemergence, 125 g ai/ha, scale 0 to 100
[17] = postemergence, 62 g ai/ha, scale 0 to 100
[18] = Preemergence, 375 g ai/ha, scale 0 (no effect) to 100 (complete control)

SMILES: CCn1nc(C2(C)CC2)cc1C(=O)Nc1cc(C(=O)N(C)C)ccc1F [Compound 299]
- Plant response rating, Sandbur [1, 10]: 80
- Plant response rating, Sandbur [1, 11]: 70
- Plant response rating, Sandbur [1, 12]: 10
- Plant response rating, Sandbur [1, 13]: 60
- Plant response rating, Sandbur [1, 14]: 100
- Plant response rating, Sandbur [1, 15]: 100
- Plant response rating, Sandbur [1, 16]: 40
- Plant response rating, Sandbur [1, 17]: 30
- Plant response rating, Black Mustard [2, 10]: 100
- Plant response rating, Black Mustard [2, 11]: 100
- Plant response rating, Black Mustard [2, 12]: 100
- Plant response rating, Black Mustard [2, 13]: 100
- Plant response rating, Black Mustard [2, 14]: 100
- Plant response rating, Black Mustard [2, 15]: 95
- Plant response rating, Black Mustard [2, 16]: 100
- Plant response rating, Black Mustard [2, 17]: 100
- Plant response rating, Ragweed [3, 10]: 90
- Plant response rating, Ragweed [3, 11]: 70
- Plant response rating, Ragweed [3, 12]: 20
- Plant response rating, Ragweed [3, 13]: 85
- Plant response rating, Ragweed [3, 14]: 90
- Plant response rating, Ragweed [3, 15]: 100
- Plant response rating, Ragweed [3, 16]: 60
- Plant response rating, Ragweed [3, 17]: 30
- Plant response rating, Ryegrass, Italian [4, 10]: 85
- Plant response rating, Ryegrass, Italian [4, 11]: 85
- Plant response rating, Ryegrass, Italian [4, 12]: 70
- Plant response rating, Ryegrass, Italian [4, 13]: 95
- Plant response rating, Ryegrass, Italian [4, 14]: 100
- Plant response rating, Ryegrass, Italian [4, 15]: 100
- Plant response rating, Ryegrass, Italian [4, 16]: 80
- Plant response rating, Ryegrass, Italian [4, 17]: 60
- Plant response rating, Foxtail, Green [5, 10]: 100
- Plant response rating, Foxtail, Green [5, 11]: 85
- Plant response rating, Foxtail, Green [5, 12]: 50
- Plant response rating, Foxtail, Green [5, 13]: 100
- Plant response rating, Foxtail, Green [5, 14]: 100
- Plant response rating, Foxtail, Green [5, 15]: 100
- Plant response rating, Foxtail, Green [5, 16]: 70
- Plant response rating, Foxtail, Green [5, 17]: 30
- Plant response rating, Dallisgrass [6, 10]: 85
- Plant response rating, Dallisgrass [6, 11]: 75
- Plant response rating, Dallisgrass [6, 12]: 75
- Plant response rating, Dallisgrass [6, 13]: 85
- Plant response rating, Dallisgrass [6, 14]: 100
- Plant response rating, Dallisgrass [6, 15]: 100
- Plant response rating, Dallisgrass [6, 16]: 70
- Plant response rating, Dallisgrass [6, 17]: 50
- Plant response rating, Spiderwort [7, 10]: 90
- Plant response rating, Spiderwort [7, 11]: 80
- Plant response rating, Spiderwort [7, 13]: 85
- Plant response rating, Spiderwort [7, 14]: 95
- Plant response rating, Spiderwort [7, 15]: 100
- Plant response rating, Spiderwort [7, 16]: 80
- Plant response rating, Spiderwort [7, 17]: 10
- Plant response rating, Goosegrass [8, 10]: 85
- Plant response rating, Goosegrass [8, 11]: 80
- Plant response rating, Goosegrass [8, 12]: 100
- Plant response rating, Goosegrass [8, 13]: 100
- Plant response rating, Goosegrass [8, 14]: 100
- Plant response rating, Goosegrass [8, 15]: 100
- Plant response rating, Goosegrass [8, 16]: 80
- Plant response rating, Goosegrass [8, 17]: 60
- Plant response rating, Mallow [9, 10]: 100
- Plant response rating, Mallow [9, 11]: 50
- Plant response rating, Mallow [9, 12]: 50
- Plant response rating, Mallow [9, 13]: 75
- Plant response rating, Mallow [9, 14]: 95
- Plant response rating, Mallow [9, 15]: 100
- Plant response rating, Mallow [9, 16]: 30
- Plant response rating, Mallow [9, 17]: 10

SMILES: CCn1nc(C(C)(C)C)cc1C(=O)Nc1cc(C(=S)N(C)C)ccc1F [Compound 294]
- Plant response rating, Sandbur [1, 10]: 80
- Plant response rating, Sandbur [1, 11]: 75
- Plant response rating, Sandbur [1, 13]: 70
- Plant response rating, Sandbur [1, 14]: 80
- Plant response rating, Sandbur [1, 18]: 95
- Plant response rating, Sandbur [1, 15]: 100
- Plant response rating, Sandbur [1, 16]: 50
- Plant response rating, Sandbur [1, 17]: 10
- Plant response rating, Black Mustard [2, 10]: 95
- Plant response rating, Black Mustard [2, 11]: 90
- Plant response rating, Black Mustard [2, 13]: 100
- Plant response rating, Black Mustard [2, 14]: 100
- Plant response rating, Black Mustard [2, 18]: 100
- Plant response rating, Black Mustard [2, 15]: 100
- Plant response rating, Black Mustard [2, 16]: 90
- Plant response rating, Black Mustard [2, 17]: 70
- Plant response rating, Ragweed [3, 10]: 80
- Plant response rating, Ragweed [3, 11]: 70
- Plant response rating, Ragweed [3, 13]: 75
- Plant response rating, Ragweed [3, 14]: 85
- Plant response rating, Ragweed [3, 18]: 100
- Plant response rating, Ragweed [3, 15]: 100
- Plant response rating, Ragweed [3, 16]: 60
- Plant response rating, Ragweed [3, 17]: 30
- Plant response rating, Ryegrass, Italian [4, 10]: 95
- Plant response rating, Ryegrass, Italian [4, 11]: 95
- Plant response rating, Ryegrass, Italian [4, 13]: 80
- Plant response rating, Ryegrass, Italian [4, 14]: 100
- Plant response rating, Ryegrass, Italian [4, 18]: 100
- Plant response rating, Ryegrass, Italian [4, 15]: 100
- Plant response rating, Ryegrass, Italian [4, 16]: 80
- Plant response rating, Ryegrass, Italian [4, 17]: 70
- Plant response rating, Foxtail, Green [5, 10]: 85
- Plant response rating, Foxtail, Green [5, 11]: 80
- Plant response rating, Foxtail, Green [5, 13]: 80
- Plant response rating, Foxtail, Green [5, 14]: 100
- Plant response rating, Foxtail, Green [5, 18]: 100
- Plant response rating, Foxtail, Green [5, 15]: 100
- Plant response rating, Foxtail, Green [5, 16]: 60
- Plant response rating, Foxtail, Green [5, 17]: 40
- Plant response rating, Dallisgrass [6, 10]: 70
- Plant response rating, Dallisgrass [6, 11]: 60
- Plant response rating, Dallisgrass [6, 13]: 75
- Plant response rating, Dallisgrass [6, 14]: 80
- Plant response rating, Dallisgrass [6, 18]: 95
- Plant response rating, Dallisgrass [6, 15]: 95
- Plant response rating, Dallisgrass [6, 16]: 40
- Plant response rating, Dallisgrass [6, 17]: 10
- Plant response rating, Spiderwort [7, 10]: 90
- Plant response rating, Spiderwort [7, 11]: 70
- Plant response rating, Spiderwort [7, 14]: 85
- Plant response rating, Spiderwort [7, 18]: 90
- Plant response rating, Spiderwort [7, 15]: 95
- Plant response rating, Spiderwort [7, 16]: 30
- Plant response rating, Spiderwort [7, 17]: 20
- Plant response rating, Goosegrass [8, 10]: 85
- Plant response rating, Goosegrass [8, 11]: 80
- Plant response rating, Goosegrass [8, 13]: 95
- Plant response rating, Goosegrass [8, 14]: 95
- Plant response rating, Goosegrass [8, 18]: 100
- Plant response rating, Goosegrass [8, 15]: 100
- Plant response rating, Goosegrass [8, 16]: 60
- Plant response rating, Goosegrass [8, 17]: 50
- Plant response rating, Mallow [9, 10]: 100
- Plant response rating, Mallow [9, 11]: 50
- Plant response rating, Mallow [9, 13]: 40
- Plant response rating, Mallow [9, 14]: 40
- Plant response rating, Mallow [9, 15]: 80
- Plant response rating, Mallow [9, 16]: 40
- Plant response rating, Mallow [9, 17]: 20

SMILES: CCc1nn(C(C)(C)C)cc1C(=O)Nc1cc(C(=O)N(C)C)ccn1 [Compound 293]
- Plant response rating, Sandbur [1, 13]: 10
- Plant response rating, Sandbur [1, 14]: 100
- Plant response rating, Sandbur [1, 18]: 100
- Plant response rating, Sandbur [1, 15]: 100
- Plant response rating, Black Mustard [2, 13]: 95
- Plant response rating, Black Mustard [2, 14]: 100
- Plant response rating, Black Mustard [2, 18]: 100
- Plant response rating, Black Mustard [2, 15]: 100
- Plant response rating, Ragweed [3, 13]: 50
- Plant response rating, Ragweed [3, 14]: 70
- Plant response rating, Ragweed [3, 18]: 100
- Plant response rating, Ragweed [3, 15]: 100
- Plant response rating, Ryegrass, Italian [4, 13]: 60
- Plant response rating, Ryegrass, Italian [4, 14]: 95
- Plant response rating, Ryegrass, Italian [4, 18]: 95
- Plant response rating, Ryegrass, Italian [4, 15]: 100
- Plant response rating, Foxtail, Green [5, 13]: 50
- Plant response rating, Foxtail, Green [5, 14]: 95
- Plant response rating, Foxtail, Green [5, 18]: 95
- Plant response rating, Foxtail, Green [5, 15]: 100
- Plant response rating, Dallisgrass [6, 13]: 60
- Plant response rating, Dallisgrass [6, 14]: 95
- Plant response rating, Dallisgrass [6, 18]: 95
- Plant response rating, Dallisgrass [6, 15]: 100
- Plant response rating, Spiderwort [7, 13]: 60
- Plant response rating, Spiderwort [7, 14]: 80
- Plant response rating, Spiderwort [7, 18]: 80
- Plant response rating, Spiderwort [7, 15]: 90
- Plant response rating, Goosegrass [8, 13]: 90
- Plant response rating, Goosegrass [8, 14]: 90
- Plant response rating, Goosegrass [8, 18]: 95
- Plant response rating, Goosegrass [8, 15]: 100
- Plant response rating, Mallow [9, 13]: 40
- Plant response rating, Mallow [9, 14]: 50
- Plant response rating, Mallow [9, 18]: 80
- Plant response rating, Mallow [9, 15]: 85
